Measurements from PMC10809383, “Synthesis and migrastatic activity of cytochalasin analogues lacking a macrocyclic moiety” (RSC Medicinal Chemistry, 2023).
“Also recorded” adds a separate entry of the source.

Key:
[1] = system: human melanoma cell line BLM; assay: Spheroid invasion assay (migrastatic activity); type: cell-based; conditions: 24 h; for migrastatic activity (cell migration, in words): 10 μM, BLM spheroid invasion; for rel. spheroid area: 10 µM, BLM spheroids in collagen, DMSO control 1.02
Experimental: Compounds 17, 20, and 22–30 were screened for their migrastatic activity using a spheroid invasion assay with the human melanoma cell line BLM.[46] Spheroids were formed and subsequently treated with cytochalasin analogues at a concentration of 10 μM for 24 h. CytB (1) and CytD (2) served as reference compounds for comparison. There was no significant increase in cell migration observed for any of the compounds tested. […] However, the effect was less profound than that of the reference compounds 1 and 2.
The spheroid invasion assay was performed following a previously published protocol.[63] Briefly, BLM cells were grown as spheroids using 3D Petri Dish (Microtissues). After 2 days of spheroid formation, 1.5 mg mL^−1 collagen solution (rat tail, collagen type I) was prepared (1.5 mg mL^−1 rat-tail collagen, 1× DMEM, 1% (v/v) FBS) and added at the bottom of a 96-well plate. Spheroids were embedded into the collagen (one spheroid per well) and covered with another layer of the gel. Collagen was polymerized at 37 °C and subsequently overlaid with a cultivation medium. Images of spheroids were taken with Leica TCS SP2 microscope (5×/0.15 dry objective; LAS X Life Science Microscope software) immediately after their seeding into collagen and again after 24 h. The area of the spheroids at 0 and 24 h was measured using FiJi (Rasband, W.S., ImageJ, NIH, Bethesda, MD, USA). Cellular invasiveness was determined as an increase in spheroid area within 24 h. Three independent experiments were conducted with at least 8 spheroids analysed in each experiment. Statistical analysis was performed in GraphPad using one-way ANOVA. For numeric data and representative images from this assay, see ESI, ^† Table S1 and Fig. S1.
Table S1: Spheroid invasion assay with BLM cell line at 10 µM concentration, 24 h.
Figure S1: Representative images of BLM cell spheroid invasion assay with or without
inhibitor. Images were taken at 0 h and 24 h. using a Leica TCS SP2 microscope (5x/0.15
dry objective). DMSO (first column) was used as a control. Scale bar 500 µm.

actin = molecular target: T1, actin (Oryctolagus cuniculus, UniProt P68135); assay: Actin polymerization assay (pyrene-actin, Actin Polymerization Biochem Kit); type: biochemical; conditions: 10 μM, in vitro
T1 construct: purchased Cytoskeleton, Inc, Denver, CO
Experimental: To further ascertain the compounds' interference with actin polymerization, the active compounds, along with CytB (1) as a positive control and compound 26 as a negative control, were subjected to an in vitro actin polymerization assay (Fig. 2B). […] This correlation between actin inhibitory activity and migrastatic effect underscores the pivotal role of actin polymerization inhibition in mediating the observed migrastatic activity.
Actin polymerization assay was performed using Actin Polymerization Biochem Kit™ (Cytoskeleton, Inc, Denver, CO) according to the manufacturer protocol. Briefly, 25 μL of G-buffer containing labelled pyrene-actin (0.4 mg mL^−1) and 2.48 μL of either DMSO (10 μM, control) or inhibitor (10 μM) was added in […] well plate. Actin polymerization was initiated by the addition of 2.48 μL of 10× actin polymerization buffer and analysed in time until fluorescent signal plateau was reached using a spectrophotometer (Infinite 200 PRO, Tecan Life Sciences, Tecan Group Ltd., Zürich, CHE). The fluorescence emission intensity of actin polymerization was measured at 420 nm and 360 nm was used as excitation wavelength. Statistical analysis was performed in GraphPad using one-way ANOVA. Measurements were performed in three independent repetitions each consisting of at least three technical replicates. For a representative graph from this assay, see ESI, ^† Fig. S2.

[2] = system: HT1080 fibrosarcoma cells; assay: Fluorescence microscopy of actin cytoskeleton (SPY650-FastAct time-lapse); type: cell-based; conditions: for effect on the actin cytoskeleton: 10 μM
Experimental: Next, we conducted experiments to assess the impact of compound 24, CytB (1) and CytD (2) on the actin cytoskeleton using fluorescence microscopy in HT1080 fibrosarcoma cells (Fig. 3). […] Therefore, we increased the concentration up to 50 μM.
HT1080 cells were seeded into 12-well glass bottom plate and stained with SPY650-FastAct™ following manufacturer's protocol. Untreated cells (control) were imaged every 20 s for 15 min using Leica TCS SP2 microscope (40×/0.6 dry objective). Afterwards, an inhibitor (compound 24 at 10 μM; 50 μM or compound 1 and 2 at 10 μM) was added into the same well and its effect was recorded for 15 min (20 s/image). All video recordings were analyzed using FiJi (Rasband, W.S., ImageJ, NIH, Bethesda, MD, USA).

[3] = system: human melanoma cells (BLM); assay: WST-1 viability assay, BLM cells; type: cell-based; conditions: for IC50: Homo sapiens, 72 h treatment, WST-1 assay, 2D culture, 0–50 μM
Experimental: (§1) In addition, the cytotoxic activity of compounds 17, 20, and 22–30 was assessed by the WST-1 viability assay using BLM (human melanoma) and MRC-5 (noncancerous human fibroblasts) cells growing in a monolayer (2D cultures, Table 2) after 72 h of treatment.
(§2) Human cells from melanoma (BLM) and human lung fibroblasts (MRC-5, Merck, USA) were used to evaluate in vitro cytotoxicity of the prepared compounds. The cells were maintained at the exponential phase of growth (passaging done by trypsin–EDTA solution) in DMEM and MEM, for BLM and MRC-5, respectively, with stable L-glutamine and supplemented with 10% fetal bovine serum (Thermo Fisher Scientific, USA). The cells were kept in an incubator at 37 °C, 5% CO2 in the atmosphere, and 95% humidity.
(§3) The compound cytotoxicity was determined by a WST-1 viability assay (Merck, USA). The amount of 5000 BLM and MRC-5 cells were seeded into individual wells of 96-well plates in 100 μL of cell cultivation media and maintained in an incubator for 16 h. After this period, the cells were treated with a concentration series (0–50 μM) of the tested compounds diluted in another 100 μL of cultivation media, which was added to the wells containing cells and incubated for 72 h. Then, BLM and MRC-5 cell viability was evaluated by WST-1 agent (5% v/v solution in phenol red-free DMEM media), i.e., the cell media was discarded and 100 μL of WST-1 solution was added. After 2 h incubation, the absorbance of formazan, derived from the WST-1 tetrazolium salt was determined spectrophotometrically at 450 nm (reference at 650 nm) by a UV-vis spectrophotometer (Bio-Rad, USA). Untreated cells, cells treated only with a vehicle, and cells treated with cytochalasin B (1) and D (2) served as controls. The measurement occurred in three independent repetitions each of which consisted of three technical replicates. The data were plotted as dose–response curves from which the half-maximal inhibitory concentrations (IC50) were calculated using AAT Bioquest.

[4] = system: human fibroblasts (MRC-5); assay: WST-1 viability assay, MRC-5 cells; type: cell-based; conditions: MRC5, 72 h treatment, WST-1 assay, 2D culture, 0–50 μM
Experimental: as §1, §2, §3

C=C1[C@@H](C)[C@H]2[C@H](Cc3ccccc3)NC(=O)[C@@]2(C(=O)OC)[C@@H](CCOCCc2ccccc2)[C@@H]1O [Compound 24, Methyl (1S,3aS,4R,5S,7S,7aR)-1-benzyl-5-hydroxy-7-methyl-6-methylene-3-oxo-4-(2-phenethoxyethyl)octahydro-3aH-isoindole-3a-carboxylate]
migrastatic activity (cell migration, in words) [1]: significant in vitro migrastatic activity; also recorded: significant decrease in cell migration; also recorded: most potent migrastatic activity
rel. spheroid area [1]: 0.46
inhibition of actin polymerization (in words) (actin): inhibit actin polymerization; also recorded: inhibition of actin polymerization
effect on the actin cytoskeleton ([2]; after 5 min): observable alterations became apparent
effect on the actin cytoskeleton ([2]; within 2 min of addition): no effect was observed
change in cell morphology ([2]; 50 μM, after 2 min): visible change in cell morphology was observed
IC50 [3]: > 50 µM
cytotoxicity (in words) ([3]; WST-1, up to 50 μM, cell line not given): non-cytotoxic
IC50 [4]: > 50 µM

COC(=O)[C@@]12C(=O)N[C@@H](Cc3ccccc3)[C@@H]1[C@H](C)C(C)=C[C@@H]2CCCOCc1ccccc1 [Compound 20, Methyl (1S,3aR,4S,7S,7aR)-1-benzyl-4-(3-(benzyloxy)propyl)-6,7-dimethyl-3-oxo-1,2,3,4,7,7a-hexahydro-3aH-isoindole-3a-carboxylate]
migrastatic activity (cell migration, in words) [1]: significant decrease in cell migration; also recorded: modest migrastatic activity
rel. spheroid area [1]: 0.56
inhibition of actin polymerization (in words) (actin): inhibit actin polymerization
IC50 [3]: 28.4 ± 0.59 µM
selectivity index (SI) ([3]; MRC-5 versus BLM, 72 h, WST-1): 1.0
IC50 [4]: 28.6 ± 1.86 µM
